Assay results as given in patent publication US6949579B2, “Aminoindazole derivatives and intermediates, preparation thereof, and pharmaceutical compositions thereof” (Aventis Pharma S.A., priority 2002, dated 2005).

Row | SMILES | melting point
1 | CCCC(=O)Nc1n[nH]c2c(F)c(N3CCOCC3)c(N)cc12 [Example 113, N-(7-fluoro-5-amino-6-morpholino-1H-indazol-3-yl)butanamide] | 180 °C
2 | O=C(CN1CCCCC1)Nc1n[nH]c2c(F)c(F)ccc12 [Example 118, N-(6,7-difluoro-1H-indazol-3-yl)-1-piperidineacetamide] | 158 °C
3 | CCCC(=O)Nc1n[nH]c2c(F)c(N3CCOCC3)c([N+](=O)[O-])cc12 [Example 112, N-(7-fluoro-5-nitro-6-morpholino-1H-indazol-3-yl)butanamide] | 250 °C
4 | O=C(CN1CCCC1)Nc1n[nH]c2cc(Cl)ccc12 [Example 85, N-(6-chloro-1H-indazol-3-yl)-1-pyrrolidineacetamide] | 168 °C
5 | O=C(Nc1n[nH]c2ccc(NS(=O)(=O)c3cccc(F)c3)cc12)c1ccccc1 [Example 38, N-[5-[[(3-fluorophenyl)sulphonyl]amino]-1H-indazol-3-yl]benzamide] | 225 °C
6 | O=C(CNC1CCCCC1)Nc1n[nH]c2cc(Cl)ccc12 [Example 79, N-(6-chloro-1H-indazol-3-yl)-2-(cyclohexylamino)acetamide] | 170 °C
7 | CCCC(=O)Nc1n[nH]c2c(F)c(F)c(Br)cc12 | 220 °C
8 | CCCC(=O)Nc1n[nH]c2cc(Br)c(Br)cc12 [Example 70, N-[5,6-dibromo-1H-indazol-3-yl]butanamide] | 250 °C
9 | O=C(CN1CCCCC1)Nc1n[nH]c2cc(Cl)ccc12 [Example 76, N-(6-chloro-1H-indazol-3-yl)-1-piperidineacetamide] | 153 °C
10 | CN(C)CCNCC(=O)Nc1n[nH]c2cc(Cl)ccc12 [Example 86, N-(6-chloro-1H-indazol-3-yl)-2-[[2-(dimethylamino)ethyl]amino]acetamide] | 104 °C
11 | O=C(CNCc1ccccc1)Nc1n[nH]c2cc(Cl)ccc12 [Example 80, 2-[(phenylmethyl)amino]-N-(6-chloro-1H-indazol-3-yl)acetamide] | 156 °C
12 | CCCC(=O)Nc1n[nH]c2ccc(C(F)(F)F)cc12 [Example 22, N-[5-(trifluoromethyl)-1H-indazol-3-yl]butanamide] | 230 °C
13 | CCCC(=O)Nc1n[nH]c2c(F)c(F)c([N+](=O)[O-])cc12 [Example 106, N-(6,7-difluoro-5-nitro-1H-indazol-3-yl)butanamide] | 255 °C
14 | CN1CCN(CC(=O)Nc2n[nH]c3cc(Cl)ccc23)CC1 | 165 °C
